Data from paper PMC8448162, “Single- and Multiple-Ascending-Dose Study of the Safety, Tolerability, and Pharmacokinetics of the Polymyxin Derivative SPR206” (Antimicrobial Agents and Chemotherapy, 2021).
Positions of bridges follow the written chain, without caps; N, C: chain ends. Non-standard residues stand in square brackets, D forms with d. Residues, ends and D or L forms follow the SMILES beside them. *: point of attachment. X1 = NC[C@@H](CC(=O)*)c1cccc(Cl)c1; Dab = NCC[C@H](N)C(=O)O; Dap = NC[C@H](N)C(=O)O

Experiment: clinical
Design: species or system human
Conditions: in vivo; for AUC(0-inf): AUC0–inf; for clearance: CL; for Vd: Vz
Description: This was a single-center, phase 1, randomized, double-blind, placebo-controlled, first-in-human study to assess the safety, tolerability, and PK of SPR206 following SAD and MAD administrations (Fig. 7). In the SAD phase, subjects received a single i.v. dose of SPR206, and in the MAD phase, subjects received i.v. doses of SPR206 every 8 h (q8h) over a period of 7 to 14 days. SPR206 was administered as a 1 h i.v. infusion.
Maximum plasma concentration (Cmax), area under the concentration-time curve from time zero to last measurable time point (AUC0–t), area under the concentration-time curve from time zero to infinity (AUC0–inf), area under the concentration-time curve from time zero to tau (AUC0–tau), time to maximum concentration (Tmax), terminal elimination rate constant (kel), terminal half-life (t1/2), terminal clearance (CL), and volume of distribution (Vz) were determined. In addition, area under the concentration-time curve from 0 to 24 h after the start of infusion (AUC0–24) was determined for the SAD phase, and area under the concentration-time curve from time zero to 8 h from start of infusion (AUC0–8) on day 1 and 0 to 48 h (AUC0–48) following the last dose on day 14 as well as predose trough concentrations were determined for the MAD phase. Urine parameters included cumulative amount of drug excreted in successive urine intervals (Ae), renal clearance (CLR), fraction of cumulative fraction of dose recovered in urine as unchanged drug (Fe), and percentage fraction of cumulative fraction of dose recovered in urine as unchanged drug (Fe%). PK parameters were determined by noncompartmental analysis using Phoenix WinNonlin 8.1.
For the SAD phase, blood samples were obtained predose and at 30, 60, 75, 90, 105, 120, and 150 min and at 3, 5, 8, 12, and 24 h following the start of infusion. Urine was collected for PK assessment predose and over the intervals of 0 to 4 h, 4 to 8 h, 8 to 12 h, and 12 to 24 h after the start of infusion.
In the MAD phase, plasma samples for PK analysis were collected (i) on day 1—pre-dose and at 30, 60, 75, 90, 105, 120, and 150 min and at 3, 5, and 8 h following start of the first infusion; (ii) prior to the morning dose (within 10 min) on days 2, 3, 5, 7, 9, 11, and 13; and (iii) predose and 30, 75, 90, 105, 120, and 150 min and 3, 5, 8, and 12 h (day 14), 24, 36 (day 15), and 48 h (day 16) following start of the last infusion. Urine was collected for PK assessment on day 1 predose, over the intervals 0 to 4 h and 4 to 8 h after start of first infusion, and on days 14 and 15 over the intervals 0 to 4 h, 4 to 8 h, 8 to 12 h, and 12 to 24 h after start of day 14 infusion. Total 24-h urine for calculating CrCl was collected from the morning of day −1 to predose on day 1 and on days 15 and 16 over the interval from 24 to 48 h after the start of the day 14 infusion. Urine creatinine concentrations were measured using 24-h collections prior to the first dose on day 1 and over the 24 to 48 h following start of infusion of the last dose (day 14). Plasma and urine samples for SPR206 levels were analyzed using a validated liquid chromatography-tandem mass spectrometry (LC-MS/MS) method. The assay range for SPR206 was 50 to 5,000 ng/ml in plasma and 100 to 50,000 ng/ml in urine. In plasma, assay precision was 1.3 to 7.7%, accuracy was 1.2 to 9.5%, stability was 194 h at 4°C, and reproducibility was 98.4%. In urine, assay precision was 1.7 to 7.5%, accuracy was −4.8 to 7.3%, stability was 147 h at 4°C, and reproducibility was 97.8%.
Plasma and urine concentrations and PK parameters for SPR206 were summarized for each treatment using descriptive statistics. In the SAD/MAD study, geometric means were calculated for AUC and Cmax. Analyses using linear models were performed to assess dose proportionality (both single dose and multiple dose), time dependence, accumulation, and attainment of steady state after multiple doses. […]

## CC(C)C[C@@H]1NC(=O)[C@@H](Cc2ccccc2)NC(=O)[C@H](CCN)NC(=O)[C@@H](NC(=O)[C@H](CN)NC(=O)[C@@H](NC(=O)C[C@H](CN)c2cccc(Cl)c2)[C@@H](C)O)CCNC(=O)[C@H]([C@@H](C)O)NC(=O)[C@H](CCN)NC(=O)[C@H](CCN)NC1=O [SPR206] (X1-T[Dap][Dab][Dab][dF]L[Dab][Dab]T; lactam 3-C (inferred))
human
  Tmax: 1.1 to 1.3 h
  accumulation ratio for AUC0–inf: 1.3-1.8
  accumulation ratio for Cmax: 1.1-1.3
  geometric CV for AUC0-inf: 6.9-17.4%
human, 25 mg
  AUC0–8: 4,391 ± 740 h · ng/ml
  AUC0–inf: 5,197 ± 945 h · ng/ml
  AUC%ext: 10.0 ± 4.5 ng·h/mL
  CL: 4.9 ± 0.9 L/h
  Cmax: 1,410 ± 241 ng/ml
  Vz: 21.3 ± 3.6 L
  half-life: 2.7 ± 0.2 h
  AUC(0-inf): 7690 ng·h/mL
  clearance: 73.3 mL/min
  Vd: 18.9 ± 2.6 L
human, 25 mg, AUC0–8
  AUC(0-t): 5880 ng·h/mL
human, 25 mg, AUC0–48
  AUC(0-t): 7680 ng·h/mL
human, 25 mg, Cmax
  Cmax: 1610 ng/mL
human, 25 mg, Half-life
  half-life: 4 ± 0.6 h
human, 50 mg
  AUC0–8: 7,955 ± 951 h · ng/ml
  AUC0–inf: 9,243 ± 1,417 h · ng/ml
  CL: 5.5 ± 0.8 L/h
  Cmax: 2,525 ± 413 ng/ml
  half-life: 2.7 ± 0.3 h
  AUC(0-inf): 12400 ng·h/mL
  clearance: 83.3 mL/min
  Vd: 21.5 ± 1.8 L
human, 50 mg, AUC0–8
  AUC(0-t): 10000 ng·h/mL
human, 50 mg, AUC0–48
  AUC(0-t): 12400 ng·h/mL
human, 50 mg, Cmax
  Cmax: 2900 ng/mL
human, 50 mg, Half-life
  half-life: 3.5 ± 0.9 h
human, 100 mg
  AUC0–48: 29,828 ± 5,112 h · ng/ml
  AUC(0-inf): 27700 ng·h/mL
  clearance: 80 mL/min
  Vd: 20.8 ± 2.9 L
human, 100 mg, AUC0–8
  AUC(0-t): 21300 ng·h/mL
human, 100 mg, AUC0–48
  AUC(0-t): 27500 ng·h/mL
human, 100 mg, Cmax
  Cmax: 6340 ng/mL
human, 150 mg
  AUC0–8: 27,492 ± 3,452 h · ng/ml
  AUC0–inf: 30,981 ± 4,189 h · ng/ml
  CL: 4.9 ± 0.6 L/h
  Cmax: 8,990 ± 1,056 ng/ml
  Vz: 19.6 ± 3.2 L
  higher plasma AUC0–8 and Cmax relative to the mean values for the cohort: approximately 23%
  AUC(0-inf): 56000 ng·h/mL
  clearance: 61.7 mL/min
  Vd: 17.1 ± 2.1 L
human, 150 mg, AUC0–8
  AUC(0-t): 41500 ng·h/mL
human, 150 mg, AUC0–48
  AUC(0-t): 55500 ng·h/mL
human, 150 mg, Cmax
  Cmax: 11500 ng/mL
human, half-life
  half-life: 2.4 to 4.1 h
human, iv, 10 mg
  Tmax: 1 h
  AUC(0-inf): 1810 ng·h/mL
  clearance: 93.3 mL/min
  Vd: 21 ± 3.4 L
human, iv, 10 mg, AUC0–8
  AUC(0-t): 1560 ng·h/mL
human, iv, 10 mg, Cmax
  Cmax: 495 ± 46.5 ng/mL
human, iv, 10 mg, Half-life
  half-life: 2.6 ± 0.1 h
human, iv, 25 mg
  Tmax: 1 h
  AUC(0-inf): 4440 ng·h/mL
  clearance: 96.7 mL/min
  Vd: 23.5 ± 4.3 L
human, iv, 25 mg, AUC0–8
  AUC(0-t): 3810 ng·h/mL
human, iv, 25 mg, Cmax
  Cmax: 1290 ng/mL
human, iv, 25 mg, Half-life
  half-life: 2.8 ± 0.2 h
human, iv, 50 mg
  Tmax: 1 h
  AUC(0-inf): 10700 ng·h/mL
  clearance: 78.3 mL/min
  Vd: 17.8 ± 2.9 L
human, iv, 50 mg, AUC0–8
  AUC(0-t): 9380 ng·h/mL
human, iv, 50 mg, Cmax
  Cmax: 3420 ng/mL
human, iv, 50 mg, Half-life
  half-life: 2.6 ± 0.3 h
human, iv, 100 mg
  Tmax: 1.1 h
  AUC(0-inf): 20400 ng·h/mL
  clearance: 83.3 mL/min
  Vd: 21.4 ± 2.8 L
human, iv, 100 mg, AUC0–8
  AUC(0-t): 17300 ng·h/mL
human, iv, 100 mg, Cmax
  Cmax: 5330 ng/mL
human, iv, 100 mg, Half-life
  half-life: 3 ± 0.3 h
human, iv, 200 mg
  Tmax: 1.1 h
  AUC(0-inf): 40900 ng·h/mL
  clearance: 81.7 mL/min
  Vd: 24 ± 3.1 L
human, iv, 200 mg, AUC0–8
  AUC(0-t): 34500 ng·h/mL
human, iv, 200 mg, Cmax
  Cmax: 11300 ng/mL
human, iv, 200 mg, Half-life
  half-life: 3.4 ± 0.7 h
human, iv, 300 mg
  Tmax: 1.1 h
  AUC(0-inf): 71000 ng·h/mL
  clearance: 70 mL/min
  Vd: 25.4 ± 3.3 L
human, iv, 300 mg, AUC0–8
  AUC(0-t): 57700 ng·h/mL
human, iv, 300 mg, Cmax
  Cmax: 18200 ng/mL
human, iv, 300 mg, Half-life
  half-life: 4.1 ± 0.4 h
human, iv, 400 mg
  Tmax: 1.1 h
  clearance: 61.7 mL/min
  Vd: 19.4 ± 3.2 L
human, iv, 400 mg, AUC0–8
  AUC(0-t): 89300 ng·h/mL
human, iv, 400 mg, Cmax
  Cmax: 25400 ng/mL
human, iv, 400 mg, Half-life
  half-life: 3.7 ± 0.5 h
  dose proportionality estimate (90% CI) for AUC0–inf: 1.11 (1.07, 1.14)
  dose proportionality estimate (90% CI) for AUC0–last: 1.14 (1.11, 1.18)
  dose proportionality estimate (90% CI) for Cmax: 1.05 (1.02, 1.08)
  estimate of the exponent from the power model (90% CI) for AUC0–inf: 1.03 (0.94, 1.12)
  estimate of the exponent from the power model (90% CI) for AUC0–last: 1.07 (0.98, 1.16)
  estimate of the exponent from the power model (90% CI) for Cmax: 1.03 (0.96, 1.10)
  intersubject variability in exposure: 10-25%
  steady state achieved (based on Ctrough): ≤ 2 days
